Results taken from patent publication EP0199170A1, “Composition and method for providing cytoprotection of the gastric mucosa in a mammal receiving aspirin” (priority 1985, dated 1986).
Read-outs that look alike come from different tables or passages of the source. Marks after values point to notes of the source that are not given here.

Assays:
[1] = system: Adjuvant Arthritis In Rats; assay: Adjuvant-induced arthritis assay (chronic inflammation, injected hind paw volume); details: for inhibition at 150 mg/kg: Rattus norvegicus, po, 384 h; for Injected Hind Paw Volume ml + S.E.: adjuvant control 5.57±0.4, normal control 1.89±0.03; for influence on the antiinflammatory efficacy of aspirin: adjuvant-induced arthritis assay, coadministered with aspirin
Description: 300 mg/kg for 16 days coadministered with 150 mg/kg of aspirin in an adjuvant-induced arthritis assay [C.J. Pearson, "Experimental Joint Disease", J. Chron.

[2] = system: Acute Inflammation In Rats; assay: Carrageenin model of acute inflammation (paw edema); type: in vivo, Sprague-Dawley rats; details: for inhibition at 100 mg/kg: Rattus norvegicus; for Mean Paw Edema, ml+S.E.: control 1.16±0.1, 9 rats per group
Description: Male Sprague-Dawley rats (initial weight of about 200 g.) received a single oral dose of sodium thiosulfate (anhydrous) at either 30, 100 or 300 mg/kg coadministered with 100 mg/kg of aspirin in the carrageenin model of acute inflammation (paw edema) [C.A. Winter et al, "Carrageenin-lnduced Edema in Hind Paw of the Rat as an Assay for Anti-Inflammatory Drugs, "Proc. Soc. Exptl.

Aspirin Lesions = assay: Gastric cytoprotection against aspirin lesions in adjuvant arthritic rats; type: in vivo, Sprague-Dawley rats; details: for Area of Lesion (mm^2), Mean + S.E. / No. of Lesions, Mean + S.E. / No. of Rats with Lesions: single daily oral administration for 16 days; for effectiveness as cytoprotectant against aspirin-induced gastric lesions in arthritic rats: coadministered with aspirin in the adjuvant-induced arthritis assay
Description: 300 mg/kg for 16 days coadministered with 150 mg/kg of aspirin in an adjuvant-induced arthritis assay [C.J. Pearson, "Experimental Joint Disease", J. Chron. […] At the completion of the assay-the stomachs were excised and examined for the presence or absence of lesions.

[3] = system: Aspirin-induced Gastric Mucosal Erosions; assay: Aspirin-induced hemorrhagic gastric erosions in fasted rats, lesion number and area by computerized planimetry; type: in vivo, Sprague-Dawley rats; details: for gastric cytoprotection: coadministered with acidified aspirin 10 mg/100 g, fasted rats; for Aspirin-induced Gastric Mucosal Erosions, percentage of glandular stomach area / Aspirin-induced Gastric Mucosal Erosions, total number of erosions: sacrificed 1 hour after; for Aspirin-induced Gastric Mucosal Erosions, percentage of glandular stomach area: dose 0 group 1.42; for Aspirin-induced Gastric Mucosal Erosions, total number of erosions: dose 0 group 11.90
Description: Fasted Sprague-Dwaley female rats were given intragastrically (ig) at least four different doses ranging from 1-30 mg/100 g. body weight of sodium thiosulfate either 30 minutes before or parallel with intragastric administration of 10 mg/100 g body weight of acidified aspirin. Rats were killed one hour after aspirin administration and the number of hemorrhagic gastric erosions (or_ lesions) was determined and the area of erosion was measured by computerized planimetry.
Fasted Sprague-Dawley Female rats were given intragastrically (ig) at least three different doses ranging from 5-30 mg/100 g body weight of 3,3'-thiobis[propanoic acid] either 30 minutes before or parallel with intragastric administration of 10 mg/100 g body weight of acidified aspirin. Rats were killed one hour after aspirin administration and the number of hemorrhagic gastric erosions (or lesions) was determined and the area of erosion was measured by computerized planimetry. 3,3'-Thiobis[propanoic acid]
All of the experiments in this example were performed in female Sprague-Dawley rats having an initial body weight of 150-200 g. […] Before the administration of aspirin, the rats were fasted over night. […] The extent of gastric mucosal injury was evaluated by a Zeiss stereomicroscope coupled with a computerized planimeter which allowed both surface measurement and counting of lesions, according to the published method of Sandor Szabo et al entitled "A Quantitative Method for Assessing the Extent of Experimental Gastric Erosions and Ulcers", J. Pharmacological Methods 13, 59-66, 1985. Light microscopy of formalin-fixed sections was also performed.
Aspirin was suspended in 1% methylcellulose dissolved in 200 mM HCI and was administered at 10 mg/100 g body weight by gavage with rubber tube (Rusch No. 8) and rats were killed one hour later. The study design is presented as follows in Table A.
In the initial experiment, doses of sodium thiosulfate as its pentahydrate were given per os - (p.o.) either 30 minutes or 30 seconds before aspirin. The. 30 second pretreatment is virtually a parallel administration of the compounds.

male Sprague-Dawley rats = assay: Acute oral toxicity in rats; details: for toxicity: summary statement
Excerpt: Sodium thiosulfate (anhydrous) was given as a single oral dose to male Sprague-Dawley rats weighing approximately 116-140 g to determine its approximate acute oral LD50. The rats were fasted for four hours before medication, observed for seven days following medication and all surviving rats sacrificed and necropsied at the completion of the study.

[4] = Table G: 150 mg/kg each, single oral daily doses for 16 days
[5] = Table H: aspirin 150 mg/kg, Na thiosulfate 300 mg/kg, single oral daily doses for 16 days
[6] = Table D: 150 mg/kg each, controls 0
[7] = Table D: 150 mg/kg each, controls 0/10
[8] = Table D: 150 mg/kg each, controls 0, listed as aspirin
[9] = Table E: aspirin 150 mg/kg, Na thiosulfate 300 mg/kg, controls 0.04±0.04
[10] = Table E: aspirin 150 mg/kg, Na thiosulfate 300 mg/kg, controls 0.1±0.1
[11] = Table E: aspirin 150 mg/kg, Na thiosulfate 300 mg/kg, controls 1/10
[12] = parallel administration with aspirin 10 mg/100 g, converted from mg/100 g pentahydrate

| Molecule | Injected Hind Paw Volume ml + S.E. [1, 4] | Mean Paw Edema, ml+S.E. ([2]; single oral dose 100 mg/kg) | Area of Lesion (mm^2), Mean + S.E. (Aspirin Lesions; [6]) | No. of Lesions, Mean + S.E. (Aspirin Lesions; [6]) | No. of Rats with Lesions (Aspirin Lesions; [7]) | Area of Lesion (mm^2), Mean + S.E. (Aspirin Lesions; [9]) | No. of Lesions, Mean + S.E. (Aspirin Lesions; [10]) | No. of Rats with Lesions (Aspirin Lesions; [11]) | influence on the antiinflammatory efficacy of aspirin [1] | gastric cytoprotection ([3]; intragastric) | effectiveness as cytoprotectant against aspirin-induced gastric lesions in arthritic rats (Aspirin Lesions) | toxicity (male Sprague-Dawley rats) | minimum statistically significant effective dose (MED) [3, 12] | further results |
| --- | --- | --- | --- | --- | --- | --- | --- | --- | --- | --- | --- | --- | --- | --- |
| CC(=O)Oc1ccccc1C(=O)O [Aspirin, aspirin] | 3.31 ± 0.2 mL | 0.65 ± 0.1 mL | 16.02±3.82 mm^2 | 15.2±2.9 | 10/10 | 11.61±4.42 mm^2 | 25.7±4.9 | 9/9 | – | – | – | – | – | inhibition at 150 mg/kg [1, 4]: 61%; inhibition at 150 mg/kg [1, 5]: 43%; inhibition at 100 mg/kg ([2]; po): 44%; Area of Lesion (mm^2), Mean + S.E. (Aspirin Lesions; [8]): 16.02 mm^2; No. of Lesions, Mean + S.E. (Aspirin Lesions; [8]): 15.2; Area of Lesion (mm^2), Mean + S.E. (Aspirin Lesions; Table E: aspirin 150 mg/kg, Na thiosulfate 300 mg/kg, controls 0.04±0.04, listed as aspirin): 11.61 mm^2; No. of Lesions, Mean + S.E. (Aspirin Lesions; Table E: aspirin 150 mg/kg, Na thiosulfate 300 mg/kg, controls 0.1±0.1, listed as aspirin): 25.7 |
| CCCCC1C(=O)N(c2ccccc2)N(c2ccccc2)C1=O [Phenylbutazone, phenylbutazone] | – | 0.41 ± 0.03 mL | – | – | – | – | – | – | – | – | – | – | – | inhibition at 100 mg/kg ([2]; single oral dose 100 mg/kg, paw edema vs control, read-out: % Inhibition): 65% |
| O=C(O)CCSCCC(=O)O [TBPA, 3,3'-Thiobis[propanoic acid]] | – | – | – | – | – | – | – | – | did not reduce the antiinflammatory efficacy of ASA | significant (p<0.01) gastric cytoprotection | effectiveness of TBPA as cytoprotectant against ASA-induced gastric lesions was also demonstrated | low order of toxicity | – | minimal effective dose ([3]; Rattus norvegicus, po, parallel administration with acidified aspirin 10 mg/100 g, intragastric, rats, area and number of lesions, read-out: minimum statistically significant effective dose (MED)): ~300 mg/kg |
| anhydrous sodium thiosulfate [Na thiosulfate] | 5.21 ± 0.5 mL | – | 0.12±0.12 mm^2 | 0.4±0.4 | 1/5 | 0 mm^2 | 0 | 0/5 | did not influence the anti-inflammatory efficacy of aspirin | – | effective in reducing the number and size of lesions | low order of acute toxicity | about 32 mg/kg | effect on the development of arthritis ([1]; 150 or 300 mg/kg alone, single oral daily doses for 16 days): did not demonstrate an effect on the development of arthritis; % Inhibition [1, 4]: 10%; % Inhibition [1, 5]: 2%; minimum statistically significant effective dose, as anhydrous form ([3]; coadministered with aspirin 10 mg/100 g, anhydrous equivalent of the pentahydrate dose): about 3 mg/100 g; gastric irritancy (male Sprague-Dawley rats; at the very high dose level of 7,000 mg/kg, single oral dose): gastric irritancy was observed; approximate acute oral LD50 (ALDsD) (male Sprague-Dawley rats; single oral dose, male rats fasted four hours, observed 7 days): 7,000 mg/kg |
| sodium thiosulfate | – | – | – | – | – | – | – | – | did not reduce the antiinflammatory efficacy of aspirin | significant (p<0.01) gastric cytoprotection | – | low order of toxicity | – | – |
| sodium thiosulfate pentahydrate | – | – | – | – | – | – | – | – | – | – | – | – | about 50 mg/kg | protection against aspirin-induced gastric erosions ([3]; given p.o. 30 minutes before aspirin 10 mg/100 g): dose-dependent protection; minimum statistically significant effective dose (MED) ([3]; parallel administration with acidified aspirin 10 mg/100 g, intragastric, rats, area and number of lesions, listed as sodium thiosulfate as its pentahydrate): about 5 mg/100 g; minimum statistically significant effective dose (MED) ([3]; parallel administration with aspirin 10 mg/100 g, converted from mg/100 g): about 201 µmol/kg; Aspirin-induced Gastric Mucosal Erosions, percentage of glandular stomach area ([3]; single oral dose 1.0 mg/100 g body weight, aspirin concomitantly 10 mg/100 g in acidified 1% methylcellulose): 0.89 percentage of glandular stomach area; Aspirin-induced Gastric Mucosal Erosions, total number of erosions ([3]; single oral dose 1.0 mg/100 g body weight, aspirin concomitantly 10 mg/100 g): 6.67; Aspirin-induced Gastric Mucosal Erosions, percentage of glandular stomach area ([3]; single oral dose 5.0 mg/100 g body weight, aspirin concomitantly 10 mg/100 g, p<0.01): 0.18* percentage of glandular stomach area; Aspirin-induced Gastric Mucosal Erosions, total number of erosions ([3]; single oral dose 5.0 mg/100 g body weight, aspirin concomitantly 10 mg/100 g, p≤0.01): 1.56*; Aspirin-induced Gastric Mucosal Erosions, percentage of glandular stomach area ([3]; single oral dose 10.0 mg/100 g body weight, aspirin concomitantly 10 mg/100 g, p<0.01): 0.27* percentage of glandular stomach area; Aspirin-induced Gastric Mucosal Erosions, total number of erosions ([3]; single oral dose 10.0 mg/100 g body weight, aspirin concomitantly 10 mg/100 g, p≤0.01): 1.78*; Aspirin-induced Gastric Mucosal Erosions, percentage of glandular stomach area ([3]; single oral dose 30.0 mg/100 g body weight, aspirin concomitantly 10 mg/100 g, p<0.01): 0* percentage of glandular stomach area; Aspirin-induced Gastric Mucosal Erosions, total number of erosions ([3]; single oral dose 30.0 mg/100 g body weight, aspirin concomitantly 10 mg/100 g, p≤0.01): 0* |
